Results as given in ChEMBL document CHEMBL1201862, “PubChem BioAssay data set” (2004).
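Cultured in 96-well plates, cells were exposed to test compound for 48 hours across five concentrations. At the GI50, growth is halved.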 Calls of active or inactive are those of the source. Rule as the data show it: active = GI50 up to about 1.1 µM and inactive = higher.

Tests used:
Test in all cases: DTP human tumour cell line panel, 48 h
HCT-15 = test system: HCT-15
Malme-3M = test system: Malme-3M
UO-31 = test system: UO-31
MDA-MB-435 = test system: MDA-MB-435
HL-60 = test system: HL-60
LOX IMVI = test system: LOX IMVI
IGROV-1 = test system: IGROV-1
SK-MEL-5 = test system: SK-MEL-5
T47D = test system: T47D
CCRF-CEM = test system: CCRF-CEM
OVCAR-3 = test system: OVCAR-3
COLO 205 = test system: COLO 205
SN12C = test system: SN12C
SF-268 = test system: SF-268
U-251 = test system: U-251
RXF 393 = test system: RXF 393
HOP-62 = test system: HOP-62
DU-145 = test system: DU-145
KM12 = test system: KM12
A498 = test system: A498

SMILES	GI50 (HCT-15) [µM]	GI50 (Malme-3M)	GI50 (UO-31)	GI50 (MDA-MB-435)	GI50 (HL-60)	GI50 (LOX IMVI)	GI50 (IGROV-1)	GI50 (SK-MEL-5)	GI50 (T47D)	GI50 (CCRF-CEM)	GI50 (OVCAR-3)	GI50 (COLO 205)	GI50 (SN12C)	GI50 (SF-268)	GI50 (U-251)	GI50 (RXF 393)	GI50 (HOP-62)	GI50 (DU-145)	GI50 (KM12)	GI50 (A498)
[N-]=[N+]=NC1CC(n2ccc(N)nc2=O)OC1COP(=O)(O)OP(=O)(O)OP(=O)(O)O (stereo not given)	> 100	> 100 µM (inactive)	> 100 µM (inactive)	> 100 µM (inactive)	> 100 µM (inactive)	> 100 µM (inactive)	> 100 µM (inactive)	> 100 µM (inactive)	> 100 µM (inactive)	> 100 µM (inactive)	> 100 µM (inactive)	> 100 µM (inactive)	> 100 µM (inactive)	> 100 µM (inactive)	> 100 µM (inactive)	> 100 µM (inactive)	> 100 µM (inactive)	> 100 µM (inactive)	–	–
Nc1ccc2nc(N)n[n+]([O-])c2c1	> 100	–	> 100 µM (inactive)	> 100 µM (inactive)	> 100 µM (inactive)	> 100 µM (inactive)	> 100 µM (inactive)	> 100 µM (inactive)	> 100 µM (inactive)	> 100 µM (inactive)	> 100 µM (inactive)	> 100 µM (inactive)	> 100 µM (inactive)	> 100 µM (inactive)	> 100 µM (inactive)	–	> 100 µM (inactive)	> 100 µM (inactive)	> 100 µM (inactive)	> 100 µM (inactive)
Cc1cccc(/N=N/C(=N\NC(=O)c2cc(Cl)ccc2O)c2ccc(N(CCC#N)CCC#N)cc2C)c1	27.7	28.1 µM (inactive)	21.9 µM (inactive)	47.1 µM (inactive)	14.3 µM (inactive)	31 µM (inactive)	14.6 µM (inactive)	34 µM (inactive)	22.9 µM (inactive)	8.79 µM (inactive)	18.5 µM (inactive)	13.6 µM (inactive)	24 µM (inactive)	30.1 µM (inactive)	36.1 µM (inactive)	30.4 µM (inactive)	28.2 µM (inactive)	39.6 µM (inactive)	27.2 µM (inactive)	–
CCNc1nc(N)c(C(=O)c2cccs2)s1	14.9	43.3 µM (inactive)	38 µM (inactive)	20.9 µM (inactive)	4.1 µM (inactive)	18.4 µM (inactive)	10.6 µM (inactive)	18.1 µM (inactive)	19.1 µM (inactive)	–	22 µM (inactive)	7.05 µM (inactive)	30 µM (inactive)	32.8 µM (inactive)	22.5 µM (inactive)	3.42 µM (inactive)	30.9 µM (inactive)	8.99 µM (inactive)	11.8 µM (inactive)	31 µM (inactive)
CCOC(=O)C1C/C(C)=C(/C)SCCCS1 (stereo not given)	> 100	> 100 µM (inactive)	> 100 µM (inactive)	> 100 µM (inactive)	28.6 µM (inactive)	68.5 µM (inactive)	> 100 µM (inactive)	45.5 µM (inactive)	60.3 µM (inactive)	–	98.9 µM (inactive)	> 100 µM (inactive)	> 100 µM (inactive)	> 100 µM (inactive)	> 100 µM (inactive)	> 100 µM (inactive)	> 100 µM (inactive)	> 100 µM (inactive)	> 100 µM (inactive)	> 100 µM (inactive)
O=C1C(Cl)=C(N(C(=O)c2ccccc2)C(=O)c2ccccc2)C(=O)c2ccccc21	2.94	–	3.39 µM (inactive)	12.6 µM (inactive)	1.08 µM (active)	25.6 µM (inactive)	19.4 µM (inactive)	3.6 µM (inactive)	4.68 µM (inactive)	2.84 µM (inactive)	10.9 µM (inactive)	16.1 µM (inactive)	18.3 µM (inactive)	2.48 µM (inactive)	5.98 µM (inactive)	3.66 µM (inactive)	49 µM (inactive)	> 100 µM (inactive)	3.38 µM (inactive)	> 100 µM (inactive)
CCOC(=O)C1C(=O)C=C(c2cc(C)ccc2O)CC1c1cccc(Br)c1 (stereo not given)	3.24	16.3 µM (inactive)	20.9 µM (inactive)	2.39 µM (inactive)	20.9 µM (inactive)	15.6 µM (inactive)	12.6 µM (inactive)	14.2 µM (inactive)	18.6 µM (inactive)	19.4 µM (inactive)	21.5 µM (inactive)	16.2 µM (inactive)	16.9 µM (inactive)	19.5 µM (inactive)	16.1 µM (inactive)	14.4 µM (inactive)	46.7 µM (inactive)	34.4 µM (inactive)	13.2 µM (inactive)	–
C/N=c1/oc2ccccc2cc1C(N)=O	> 100	–	58.2 µM (inactive)	> 100 µM (inactive)	> 100 µM (inactive)	> 100 µM (inactive)	53.3 µM (inactive)	> 100 µM (inactive)	> 100 µM (inactive)	> 100 µM (inactive)	> 100 µM (inactive)	> 100 µM (inactive)	> 100 µM (inactive)	> 100 µM (inactive)	> 100 µM (inactive)	> 100 µM (inactive)	> 100 µM (inactive)	> 100 µM (inactive)	> 100 µM (inactive)	–
CCOC(=O)CSc1nc(-c2ccc(Cl)cc2)c(C#N)c(=O)[nH]1	> 100	–	77.3 µM (inactive)	> 100 µM (inactive)	22 µM (inactive)	–	> 100 µM (inactive)	> 100 µM (inactive)	85.1 µM (inactive)	41.1 µM (inactive)	> 100 µM (inactive)	> 100 µM (inactive)	> 100 µM (inactive)	> 100 µM (inactive)	> 100 µM (inactive)	> 100 µM (inactive)	> 100 µM (inactive)	> 100 µM (inactive)	> 100 µM (inactive)	> 100 µM (inactive)
COC(=O)/C=C/c1ccc2c(c1)[C@H](C(=O)OC)[C@@H](c1ccc(O)cc1)O2	5.02	20.6 µM (inactive)	28.5 µM (inactive)	3.32 µM (inactive)	6.27 µM (inactive)	18 µM (inactive)	27.4 µM (inactive)	14.2 µM (inactive)	28.1 µM (inactive)	9.06 µM (inactive)	8.91 µM (inactive)	25.2 µM (inactive)	43.5 µM (inactive)	30.3 µM (inactive)	21.9 µM (inactive)	–	35.8 µM (inactive)	71.3 µM (inactive)	19 µM (inactive)	86.9 µM (inactive)
Cc1cc(CNC(=O)OCc2ccccc2)c(C)c2c1Oc1ccccc1O2	97.5	75.9 µM (inactive)	28.6 µM (inactive)	> 100 µM (inactive)	–	> 100 µM (inactive)	24.2 µM (inactive)	> 100 µM (inactive)	25.8 µM (inactive)	> 100 µM (inactive)	57.8 µM (inactive)	50.1 µM (inactive)	24.3 µM (inactive)	20.7 µM (inactive)	18.8 µM (inactive)	12.7 µM (inactive)	17.4 µM (inactive)	71 µM (inactive)	43.6 µM (inactive)	23 µM (inactive)
